Data published in paper PMC8921065, “Combination of terbium-161 with somatostatin receptor antagonists—a potential paradigm shift for the treatment of neuroendocrine neoplasms” (European Journal of Nuclear Medicine and Molecular Imaging, 2021).
Several values for one entry are separate records, joined by “and”; a condition that tells them apart may be missing. Equal values may be shown once. Read-outs that look alike come from different tables or passages of the source. Where a SMILES comes first, the peptide text is derived from it. Bridges are numbered along the chain shown (N, C = ends). [ ]: non-standard residue; d: D form. The star is where a group is joined. DOTA = O=C(O)CN1CCN(CC(=O)O)CCN(CC(=O)*)CCN(CC(=O)O)CC1; dPhe(4-NHCONH2) = NC(=O)Nc1ccc(C[C@@H](N)C(=O)O)cc1; Phe(4-Cl) = N[C@@H](Cc1ccc(Cl)cc1)C(=O)O

How the values were obtained:
AR42J tumor-bearing mice [1] = settings: 2 h p.i., 1.0 nmol/mouse, ref Borgna et al., 2021 [11], cited from earlier work
in vivo = settings: mouse, iv, total radioactivity
[2] = Early side effects: blood plasma chemistry; format: in vivo, mice; settings: endpoint of the therapy
[3] = Early side effects: relative body weight, organ masses and mass ratios; format: in vivo, mice; settings: at euthanasia
Excerpt: At the same time, relevant organs and tissues were collected, and the masses were put into relation to the brain mass of the respective mouse in order to allow the comparison of organ-to-brain and organ-to-body weight ratios among the single treatment groups (Supplementary Material).
Definition of relative body weight (RBW): The RBW was defined as [BWx/ BW0], where BWx is the body weight in gram at a given Day x and BW0 the body weight in gram at Day 0.

AR42J tumor-bearing mice [4] = assay: Therapy study, therapeutic efficacy; settings: for tumor growth delay: day 0 and day 7; for Time frame of euthanasia: end of study day 49
Experimental: The therapy study was initiated with mice randomly assigned to five groups (n = 6) when the AR42J tumors reached an average volume of 99 ± 16 mm^3. […] The endpoint criteria were defined according to a scoring system which required euthanasia of mice with a score ≥ 3 (Supplementary Material).
For the subsequent phase, in which the tumors started to regrow, the doubling time of the tumor volume was calculated based on the fitted exponential tumor growth curve. The average ± SD of tumor growth delay and of the doubling time of the tumor volume in single mice, respectively, were compared among groups with a one-way ANOVA with Tukey’s multiple comparisons post-test. The survival times of mice were presented by Kaplan–Meier curves and analyzed using a log-rank test (Mantel-Cox).
Definition of tumor volume (V) and relative tumor volume (RTV): The tumor dimension was determined by measuring the longest tumor axis (L) and its perpendicular axis (W) with a digital caliper. The tumor volume (TV) was calculated according to the equation [V = 0.5 × (L × W^2)]. The relative tumor volume (RTV) was defined as [TVx/TV0], where TVx is the tumor volume in mm^3 at a given Day x and TV0 the tumor volume in mm^3 at Day 0.
Scoring system: Endpoint criteria were defined using a scoring system which required euthanasia of mice with a score ≥3. Every second day, the following criteria were assessed in the mice, assigning a score from 0–3 for each criterion: (i) appearance (general status, skin color, etc.), (ii) behavior (vitality, sociality, crouching etc.), (iii) body weight (stable, loss >5 ≤10%, loss >10 <15%, loss ≥ 15% compared to initial body weight), (iv) tumor size (<800 mm^3, ≥800 and <900 mm^3, ≥900 and <1000 mm^3, ≥1000 mm^3), (v) tumor ulceration. A score ≥3 was for example due to: (i) appearance of wrinkled, translucent skin, (ii) mouse in crouching position and/or apathetic, (iii) a body weight loss of ≥15% of initial body weight, (iv) a tumor volume of ≥1000 mm^3, (iii/iv) a combination of a tumor size of ≥800 mm^3 and body weight loss of ≥10% and/or (v) ulceration of the tumor.

metastatic NENs = settings: human, in vivo; cited from earlier work

Compound | ALB [2] | ALP [2] | BUN [2] | CRE [2] | TBIL [2] | AR42J tumor uptake (AR42J tumor-bearing mice [1]) | Adrenals uptake (AR42J tumor-bearing mice [1]) | Blood uptake (AR42J tumor-bearing mice [1]) | Femur uptake (AR42J tumor-bearing mice [1]) | Heart uptake (AR42J tumor-bearing mice [1]) | Intestines uptake (AR42J tumor-bearing mice [1]) | Kidneys uptake (AR42J tumor-bearing mice [1]) | Liver uptake (AR42J tumor-bearing mice [1]) | Lung uptake (AR42J tumor-bearing mice [1]) | Organ mass Brain [3] | Organ mass Kidneys [3] | Organ mass Liver [3] | Organ mass Spleen [3] | tumor growth delay (AR42J tumor-bearing mice [4]; 2 × 10 MBq, 0.2 nmol) | Median survival (AR42J tumor-bearing mice [4]; mouse, in vivo) | also measured
C[C@@H](O)[C@@H]1NC(=O)[C@H](CCCCN)NC(=O)[C@@H](Cc2ccc(NC(N)=O)cc2)NC(=O)[C@H](Cc2ccc(O)cc2)NC(=O)[C@H](NC(=O)[C@H](Cc2ccc(Cl)cc2)NC(=O)CN2CCN(CC(=O)O)CCN(CC(=O)O)CCN(CC(=O)O)CC2)CSSC[C@@H](C(=O)N[C@H](Cc2ccc(O)cc2)C(N)=O)NC1=O [DOTA-LM3] |  |  |  |  |  |  |  |  |  |  |  |  |  |  |  |  |  |  |  |  | AR42J tumor uptake (AR42J tumor-bearing mice [1]; listed as [^161Tb]Tb/[^177Lu]Lu-DOTA-LM3): ~ 18 % IA/g
C[C@@H](O)[C@@H]1NC(=O)[C@H](CCCCN)NC(=O)[C@@H](Cc2c[nH]c3ccccc23)NC(=O)[C@H](Cc2ccc(O)cc2)NC(=O)[C@@H](NC(=O)[C@@H](Cc2ccccc2)NC(=O)CN2CCN(CC(=O)O)CCN(CC(=O)O)CCN(CC(=O)O)CC2)CSSC[C@@H](C(=O)N[C@H](CO)[C@@H](C)O)NC1=O [DOTATOC, DOTA-[Tyr^3]-octreotide] |  |  |  |  |  |  |  |  |  |  |  |  |  |  |  |  |  |  |  |  | tissue uptake at 2 h (in vivo; AR42J tumor, 0.04 nmol/mouse): ~17 %ID/g; tissue uptake at 2 h (in vivo; AR42J tumor, 0.2 nmol/mouse): ~15 %ID/g; tissue uptake at 2 h (in vivo; liver): ~0.2 %ID/g; AR42J tumor uptake (AR42J tumor-bearing mice [1]; listed as [^161Tb]Tb-/[^177Lu]Lu-DOTATOC): ~ 8 % IA/g
C[C@@H](O)[C@@H]1NC(=O)[C@H](CCCCN)NC(=O)[C@@H](Cc2c[nH]c3ccccc23)NC(=O)[C@H](Cc2ccc(O)cc2)NC(=O)[C@@H](NC(=O)[C@@H](Cc2ccccc2)NC(=O)CN2CCN(CC(=O)O)CCN(CC(=O)O)CCN(CC(=O)O)CC2)CSSC[C@@H](C(=O)N[C@H](CO)[C@@H](C)O)NC1=O [[^161Tb]Tb-DOTATOC] [metal not drawn] | 23 ± 2 g/L | 76 ± 21 U/L | 5.8 ± 1.0 mmol/L | <18 (n=6) µmol/L | < 3 µmol/L and 4 ± 1 µmol/L | 8.2 ± 0.2 % IA/g | 0.25 ± 0.06 % IA/g | ≤0.10 % IA/g | ≤0.10 % IA/g | ≤0.10 % IA/g | 0.21 ± 0.13 % IA/g | 9.9 ± 1.3 % IA/g | 0.17 ± 0.01 % IA/g | 0.27 ± 0.03 % IA/g | 440 ± 23 mg | 352 ± 27 mg | 1195 ± 57 mg | 86 ± 19 mg | 9.0 ± 5.5 days | 21 days | Muscle uptake (AR42J tumor-bearing mice [1]): ≤0.10 % IA/g; Pancreas uptake (AR42J tumor-bearing mice [1]): 0.71 ± 0.07 % IA/g; Spleen uptake (AR42J tumor-bearing mice [1]): 0.11 ± 0.02 % IA/g; Stomach uptake (AR42J tumor-bearing mice [1]): 0.74 ± 0.38 % IA/g; Time frame of euthanasia (AR42J tumor-bearing mice [4]; 2 × 10 MBq, 0.2 nmol): 20 to 26 days
C[C@@H](O)[C@@H]1NC(=O)[C@H](CCCCN)NC(=O)[C@@H](Cc2ccc(NC(N)=O)cc2)NC(=O)[C@H](Cc2ccc(O)cc2)NC(=O)[C@H](NC(=O)[C@H](Cc2ccc(Cl)cc2)NC(=O)CN2CCN(CC(=O)O)CCN(CC(=O)O)CCN(CC(=O)O)CC2)CSSC[C@@H](C(=O)N[C@H](Cc2ccc(O)cc2)C(N)=O)NC1=O [[^177Lu]Lu-DOTA-LM3] [metal not drawn] ({DOTA}-[Phe(4-Cl)][dC]Y[dPhe(4-NHCONH2)]KTC[dY]-NH2; disulfide 2-7 (inferred); C-terminus assumed) | 23 ± 1 g/L | 66 ± 5 U/L | 8.2 ± 1.9 mmol/L and 8.2 ± 1.8 mmol/L | < 18 µmol/L and 19 µmol/L | < 3 µmol/L and 4 ± 1 µmol/L |  |  |  |  |  |  |  |  |  | 471 ± 30 mg | 336 ± 13 mg | 1254 ± 106 mg | 92 ± 17 mg | 35 ± 7 days | 48.5 days | tolerability in patients (metastatic NENs): well tolerated; tumor doses compared to [177Lu]Lu-DOTATOC (metastatic NENs): higher tumor doses; mice with exponential tumor regrowth (AR42J tumor-bearing mice [4]; after the growth delay): 5 out of 6; mice surviving until the end of the study (AR42J tumor-bearing mice [4]; mouse, in vivo): three out of six mice; doubling time of the tumor volume (AR42J tumor-bearing mice [4]; regrowth phase, 2 × 10 MBq, 0.2 nmol): 3.8 ± 1.1 days
C[C@@H](O)[C@@H]1NC(=O)[C@H](CCCCN)NC(=O)[C@@H](Cc2c[nH]c3ccccc23)NC(=O)[C@H](Cc2ccc(O)cc2)NC(=O)[C@@H](NC(=O)[C@@H](Cc2ccccc2)NC(=O)CN2CCN(CC(=O)O)CCN(CC(=O)O)CCN(CC(=O)O)CC2)CSSC[C@@H](C(=O)N[C@H](CO)[C@@H](C)O)NC1=O [[^177Lu]Lu-DOTATOC] [metal not drawn] | 24 ± 5 g/L | 77 ± 8 U/L | 6.3 ± 0.9 mmol/L | <18 (n=5) µmol/L | < 3 µmol/L and 4 ± 1 µmol/L | 8.9 ± 1.5 % IA/g | 0.28 ± 0.08 % IA/g | ≤0.10 % IA/g | ≤0.10 % IA/g | ≤0.10 % IA/g | 0.20 ± 0.05 % IA/g | 11 ± 1 % IA/g | 0.26 ± 0.07 % IA/g | 0.37 ± 0.06 % IA/g | 453 ± 31 mg | 342 ± 23 mg | 1121 ± 123 mg | 90 ± 17 mg | 6.0 ± 4.4 days and 6 ± 4 days | 19.5 days | Muscle uptake (AR42J tumor-bearing mice [1]): ≤0.10 % IA/g; Pancreas uptake (AR42J tumor-bearing mice [1]): 0.80 ± 0.13 % IA/g; Spleen uptake (AR42J tumor-bearing mice [1]): 0.15 ± 0.03 % IA/g; Stomach uptake (AR42J tumor-bearing mice [1]): 0.65 ± 0.11 % IA/g; Time frame of euthanasia (AR42J tumor-bearing mice [4]; 2 × 10 MBq, 0.2 nmol): 12 to 22 days
